Tested on: MCF7 cells
Test: Cytotoxic reagent assay: Doxorubicin, MTT live cells and 41/7 ELISA
Assay type: cell-based
Details: 450 nM, 1-96 hours, MCF7, FIG. 7
Description: 2. In this experiment, the effect of a known cancer chemotherapeutic agent (Doxorubicin, Sigma Inc.) on soluble nuclear matrix protein release into extracellular fluid was assessed.
A standard curve for live cells was established with MCF7 cells (breast carcinoma, adherent). Cells were seeded into 6 well plates in 2 mls of DME complete (5% FCS+SerXtend) with 0.5 micrograms/ml mitomycin C (Sigma, Inc., Cincinnati) to prevent any cell growth.
After incubating overnight at 37° C., 200 μl of 3-[4, 5 Dimethylthiazol-2-4] 2, 5-dipheny(tetrazoluim bromide), MTT, stock solution (5 mg/ml MTT in phosphate-buffered saline, Sigma, Inc.) were added to each well. After the plates were incubated for four hours at 37° C. and 5% CO2 the supernatants were aspirated off and 4 mls of DMSO (dimethyl sulfoxide) were added to solubilize remaining crystals. This was drawn off and the absorbance was read in the spectrophotometer at 562 nm against a blank of straight DMSO.
Cells were treated with Doxorubicin as follows: MCF7 cells were seeded into 6 well plates at a density of 1.3×10^5 cells/well in 2 mls DME complete. […]
At 1, 24, 48, 72, and 96 hours, the supernatants were removed and frozen at −20° C. to assay later. After replacing the supernatant with a fresh 2 ml of DME complete, the number of live cells was determined using the same procedure as for the standard curve. […]

COc1cccc2c1C(=O)c1c(O)c3c(c(O)c1C2=O)C[C@@](O)(C(=O)CO)C[C@@H]3O[C@H]1C[C@H](N)[C@H](O)[C@H](C)O1 [Doxorubicin]
cell viability (MTT live cells) versus nuclear matrix protein released (41/7 ELISA): inversely related to nuclear matrix protein released

From US6740494B2, “Nuclear matrix protein fluid assay” (Matritech, Inc., priority 1991, dated 2004)
